Source: US20230219957A1, “SMALL MOLECULE CB002-ANALOGES RESTORE THE P53 PATHWAY AND TARGET S-PHASE CHECKPOINT” (Brown University, priority 2020, published 2023)

Tests used:
SW480 colon cancer cells [1] = assay: Immunoblot of cell cycle markers; format: cell-based, human; conditions: synchronized SW480
Method: Immunoblotting (additional method). After treatment, floating cells were collected, and adherent cells were trypsinized, washed with phosphate-buffered saline, and lysed with RIPA buffer (Sigma-Aldrich, St. Louis, Mo., USA) for thirty minutes to one hour at 4° C. Protein lysates were pelleted. The supernatant was collected. Total protein per sample was determined using a Pierce™ BCA Protein Assay Kit (Thermo Fisher Scientific, Waltham, Mass., USA). Proteins were denatured using 1× NuPAGE® LDS sample buffer (Thermo Fisher Scientific, Waltham, Mass., USA) and reduced with 2-mercaptoethanol (Sigma-Aldrich, St. Louis, Mo., USA). Protein lysates were boiled for fifteen min at 95° C. After protein normalization, samples were loaded into NuPAGE™ Novex™ 4-12% Bis-Tris Protein Gels (Thermo Fisher Scientific, Waltham, Mass., USA). Gel electrophoresis was performed with NuPAGE™ MES SDS Running Buffer. Proteins were transferred onto an Immobilon-P membrane (PVDF, EMD Millipore, Taunton, Mass., USA) using a Bio-Rad system with a 10% Tris-Glycine and 10% methanol transfer buffer diluted in distilled and deionized water. Membranes were blocked with 10% milk in Tris-buffered saline with Tween 20 (TBST) solution. The membranes were incubated overnight with the primary antibody, washed with TBST, and incubated with secondary antibody for one hour. Primary antibody incubations were performed in 5% milk or 5% bovine serum albumin in TBST solution as per manufacturer instructions. Signal was detected using a chemiluminescent detection kit, followed by autoradiography. The following antibodies were used: p53 (1:1000, #sc-126, Santa Cruz Biotechnology, Santa Cruz, Calif., USA), p73 (1:1000, #A300-126A, Bethyl Laboratories), Noxa (1:250, #OP180, EMD Millipore, Taunton, Mass., USA), DR5 (#3696), cleaved PARP (#9546), phospho-RPA32/RPA2 (#54762), p-cdc2 (#9111), p-cdc25c, pH3 (#3377) (1:1,000; Cell Signaling Technology, Inc., Danvers, Mass. USA) and β-actin (1:10000, A5441, Sigma).
(§1) Cell synchronization. Synchronized cells were synchronized by double thymidine block. Cells were treated with […] thymidine for sixteen hours. The drug was removed and replaced by complete growth media for eight hours. Cells were treated for the second time with […] thymidine for sixteen hours. At this point, cells were treated and harvested.

SW480 colon cancer cells [2] = assay: Propidium iodide / BrdU cell cycle analysis of synchronized cells; format: cell-based, human; conditions: all time points, versus DMSO vehicle control
Method: as §1
Propidium iodide and BrdU flow cytometry assay. Cells were seeded at a density of 5×10^5 in a 6-well plate and treated for forty-eight to seventy-two hours. After treatment, floating cells were collected, and adherent cells were trypsinized, pelleted, washed with phosphate-buffered saline, and fixed in 70% ethanol overnight. For propidium iodide (PI) based Sub-G1 apoptosis analysis, cells were spun down after fixation and resuspended in phosphate-citric acid buffer (0.2M Na2HPO4+0.1M Citric Acid, pH 7.8) at room temperature for five minutes. The cell pellet was resuspended for staining with 50 μg/mL PI and 250 μg/mL ribonuclease (RNase A). For BrdU analysis, after cell fixation, cells were spun down and resuspended in one mL of 2N HCL with 0.5% Triton X-100 for thirty minutes at room temperature. Cells were pelleted, washed with phosphate-buffered saline, and resuspended in 20 μL BrdU antibody (BD Biosciences, cat no. 347580) diluted in 0.5% Tween 20/PBS/5% bovine serum albumin for thirty minutes at room temperature. Cells were then spun down and resuspended in 140 μg/mL goat-anti mouse Alexa Fluor 488 (#A-11008, Thermo Fisher Scientific, Waltham, Mass., USA) in 0.5% Tween 20 in phosphate-buffered saline/5% bovine serum albumin for thirty minutes at room temperature. Cells were then spun down and resuspended in 5 μg/mL PI: 250 μg/mL RNase A solution. Samples were analyzed on an Epics Elite Epics flow cytometer (Coulter-Beckman).
BrdU analysis gating. Cell aggregates were gated out in the PI Peak vs DNA PI histogram. BrdU lower limit intensity was set on the upper limit of the negative control. The no BrdU antibody assays and no goat-anti mouse Alexa Fluor 488 antibody assays were the negative controls. […] Gating was held constant throughout the samples within a given assay.

Compound | pcdc2(Tyr15) and pcdc25c(Ser16) protein expression (SW480 colon cancer cells [1]; single agent) | S-phase population (SW480 colon cancer cells [2]) | pcdc2(Tyr15) and pcdc25c(Ser16) expression (SW480 colon cancer cells [1]; combination with etoposide)
COc1cc([C@@H]2c3cc4c(cc3[C@@H](O[C@@H]3O[C@@H]5CO[C@@H](C)O[C@H]5[C@H](O)[C@H]3O)[C@H]3COC(=O)[C@H]23)OCO4)cc(OC)c1O [etoposide, reference compound] | enhances protein expression | – | –
Cn1c(=O)c2c(ncn2C)n(C)c1=O [caffeine, reference compound] | – | comparable to the dimethyl sulfoxide vehicle control | decreased expression
